Experimental data published in patent US20120178667A1, “METHODS FOR TREATING SEPTIC SHOCK” (THE GOVERNMENT OF THE UNITED STATES OF AMERICA, dba THE …, priority 2006, published 2012).

Assays:
[1] = system: BALB/c mice; experiment: LPS-induced serum TNF-α and soluble ICAM-1 in mice (ELISA); type: in vivo; conditions: serum 2 hours after LPS
Protocol: FIG. 2 is a set of bar graphs showing P13 inhibition of serum inflammatory mediators. BALB/c mice were injected intraperitoneally (i.p.) with 5 mg/kg LPS and 30 minutes later injected i.p. with P13 (15, 50, or 75 μg) or PBS. Two hours after LPS injection, serum was collected and TNF-α and soluble ICAM-1 were quantified by ELISA. Values represent means +/−S.D.
Serum cytokines and soluble ICAM-1. BALB/c female mice were injected intraperitoneally (i.p.) with 5 mg/kg of LPS and peptide P13 (15, 50, or 75 μg) or PBS was injected i.p. 30 minutes later. Two hours after injection of LPS, serum was collected and TNF-α and soluble ICAM-1 quantified by ELISA (R&D Systems).
To determine the effect of peptide treatment on the induction of serum inflammatory mediators, mice were injected with a sub-lethal high dose of LPS and 30 minutes later with P13 or phosphate buffered saline (PBS). Serum was collected 2 hours after treatment with LPS. TNF-α and soluble ICAM-1 were quantified by ELISA. […] The effect of delayed peptide P13 treatment at different doses of peptide on LPS-induced production of soluble ICAM-1 was examined.

[2] = system: murine bEND.3 endothelial cell line; experiment: LPS-induced MIP-2 and IL-6 production by endothelial cells (ELISA of supernatants); type: cell-based; conditions: 15 μg/well or 20 μg/well peptide, 15 min pre-treatment, LPS 12.5 ng/well, 4-hour supernatants
Protocol: FIG. 1 is a set of bar graphs showing P13 inhibition of macrophage inflammatory protein (MIP)-2 and interleukin (IL)-6. Murine endothelial cell line bEND.3 (2×10^5 cells/48-well plate) were pre-treated for 15 minutes with P13 or scrambled control peptide at matching peptide concentrations (15 or 20 μg/well) and then with LPS (12.5 ng/well). MIP-2 and IL-6 were quantified by ELISA from 4-hour cell-free supernatants. Cytokine values represent means +/−S.D. from quadruplicate wells/experimental condition.
Quantification of cytokines from cell supernatants. IL-6 and MIP-2 ELISA kits were used to assay cytokine levels in cell culture supernatants according to the protocols provided by the manufacturer (R&D Systems, Minneapolis, Minn.).
Because endothelial cells can be activated and even damaged in response to LPS exposure, the effect of treatment with peptide P13 on LPS-induced cytokine responses from the murine bEND.3 endothelial cell line was examined. Treatment of the bEND cells with LPS induced secretion of MIP-2 and IL-6.

[3] = system: TLR-dependent signaling; conditions: in vitro; cited from earlier work
[4] = system: HC-NPC co-cultures; experiment: Inflammatory mediators in LPS-stimulated HC-NPC co-cultures; type: cell-based; conditions: stimulated with LPS
[5] = system: animals treated with low dose LPS plus D-GaLN; experiment: Survival after low dose LPS plus D-GaLN; type: in vivo
[6] = system: BALB/c mice; experiment: LPS-induced sepsis model, lethality after high dose LPS; type: in vivo; conditions: LPS 70 mg/kg i.p.; peptide 75 μg s.c. at 2 and 6 hours after LPS
Protocol: FIG. 3 is a line graph illustrating decreased mortality in P13-treated mice after high dose LPS. BALB/c mice were injected i.p. with LPS (70 mg/kg) and 2 and 6 hrs later treated s.c. with P13 or control peptide (75 μg/mouse/injection). The mice (10 animals/group) were monitored every 3-4 hours for lethality, and the experiment was terminated after 96 hrs.
LPS-induced sepsis. Female BALB/c mice were injected i.p. with 70 mg/kg of LPS. At 2 and 6 hours after injection of LPS, mice were treated with scrambled control peptide or peptide P13. The peptides were administered subcutaneously at 75 μg/animal/injection time, with 10 mice/treatment group. The mice were monitored every 3-4 hours and the experiment was terminated after 96 hours.
As P13 inhibited production of inflammatory mediators in vivo, an LPS-induced murine sepsis model was used to determine the effect of peptide P13 on survival. Mice were injected with lethal dose of LPS (70 mg/kg) and treated 2 and 6 hours later with scrambled control peptide (75 μg) or a matching concentration of peptide P13. […] The experiment was terminated at 96 hours and P13 treated mice remained at 40% survival (FIG. 3). These studies confirm the in vivo activity of peptide P13 to reduce lethality in an LPS sepsis model even when peptide treatment is initiated after administration of LPS.

| Substance | inhibition of serum TNF-α ([1]; 50 μg i.p. 30 min after 5 mg/kg LPS i.p.) | inhibition of serum TNF-α ([1]; 75 μg i.p. 30 min after 5 mg/kg LPS i.p.) | inhibition of IL-6 production [2] | inhibition of MIP-2 production [2] | inhibition of TLR-dependent signaling [3] | production of inflammatory mediators [4] | survival [5] | lethality at 36 hours [6] [%] | lethality at 74 hours [6] [%] | survival at 96 hours [6] [%] |
| --- | --- | --- | --- | --- | --- | --- | --- | --- | --- | --- |
| DIVKLTVYDCI-RRRRRRRRR (listed as Vaccinia virus) [P13, A52R amino acids 125 to 135 linked to nine arginines] | did not reduce | significant inhibition | > 90% | > 90% | capable of in vitro inhibition | reduced the production of inflammatory mediators | enhance survival | 60 | 60 | 40 |
| ITCVDVDLIYK-RRRRRRRRR (ITCVDVDLIYKRRRRRRRRR; listed as Vaccinia virus) [scrambled control peptide, scrambled control of P13 with nine arginines, reference compound] |  |  | only modest inhibition | only modest inhibition |  |  |  | 90 | 100 |  |
